Each structure is given as a SMILES string.

One may read the fold induction as the ratio of treated to control signal.

The target in this experiment is T1, farnesol X receptor (FXR) (Homo sapiens, UniProt Q96RI1).
T1 construct: endogenous in cells; host or cells: HepG2
T1 sequence (Q96RI1 1-486): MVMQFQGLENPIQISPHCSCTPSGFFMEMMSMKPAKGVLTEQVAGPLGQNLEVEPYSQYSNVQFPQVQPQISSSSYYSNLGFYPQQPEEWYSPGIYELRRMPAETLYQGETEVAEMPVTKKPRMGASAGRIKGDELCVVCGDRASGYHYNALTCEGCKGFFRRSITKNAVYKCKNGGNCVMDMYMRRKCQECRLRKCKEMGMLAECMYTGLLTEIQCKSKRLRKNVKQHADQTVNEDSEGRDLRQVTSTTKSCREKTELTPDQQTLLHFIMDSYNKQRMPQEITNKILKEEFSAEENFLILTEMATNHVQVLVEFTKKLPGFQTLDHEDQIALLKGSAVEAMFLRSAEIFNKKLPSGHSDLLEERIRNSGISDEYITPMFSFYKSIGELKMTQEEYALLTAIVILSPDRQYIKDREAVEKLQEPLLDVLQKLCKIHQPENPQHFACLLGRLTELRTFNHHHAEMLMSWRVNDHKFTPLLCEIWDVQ
The experiment in a line: Farnesol X receptor (FXR) reporter gene assay (dual luciferase) in HepG2 cells. It is filed as cell-based. The note with it: for fold induction at 10 µM: HepG2 cells, drug treatment 24 hours, firefly/renilla luciferase ratio, Con = 1.00; for FXR activating effect compared with GW4064: statement on Table 4 data. How it is done: HepG2 cells were purchased from ATCC (Manassas, VA, USA) and cultured in Dulbecco's modified Eagle's medium (DMEM; Hyclone) containing 10% fetal bovine serum (FBS, Hyclone, Logan, UT, USA), 50 units/mL penicillin (Hyclone) and 50 μg/mL streptomycin (Hyclone). All cells were cultured to have a confluency of about 80% to 90% under the conditions of 37° C. and 5% Co2.
In order to measure FXR transcription factor activity, HepG2 cells (1×10^5 cells/well) were cultured in a 48-well cell culture plate (SPL Life Science Co., Gyeonggido, Korea) for 20 hours and then transduced using Lipofectamin L3000 (Invitrogen, San Diego, CA, USA). Luciferase is an enzyme that catalyzes light-emitting reactions. A plasmid in which the firefly luciferase gene was fused to farnesol X receptor (FXR) and a plasmid in which the renilla luciferase gene was fused to thymidine kinase (TK) were used for transduction. Reacted were 25 μL of serum and antibiotic-free Opti-MEM® (Life Technologies, Grand Island, NY) and 0.5 μL of Lipofectamin L3000 per 0.5 μg of FXR-firefly luciferase plasmid and 10 ng of TK-renilla luciferase plasmid, and the cells were reacted with the reaction mixture for 24 hours. Thereafter, DMEM medium containing 0.1% serum was treated with a drug for 24 hours. After the reaction was completed, the drug-treated culture medium was discarded, and lysis buffer was added at 0.4 ml/well to remove the cells, then the cells were dispensed into a 96-well white plate (SPL Life Science Co.), and the luminescence level was measured using the Dual-glo Luciferase Assay System (Promega, Madison, WI, USA). For the firefly luciferase activity (to see the level of FXR expression) and renilla luciferase activity (to provide a reference value by showing constant expression), the luminescence level was measured using the GloMax Multi Detection System (Promega) and then the relative ratio (firefly luciferase activity/renilla luciferase activity) was calculated.
Background: A reporter such as luciferase makes a cellular process visible.

On to `COC(=O)[C@@H](C)NC(=O)/C=C/c1ccc(OCc2c(-c3c(Cl)cccc3Cl)noc2C)cc1` [KS-050, methyl (E)-(3-(4-((3-(2,6-dichlorophenyl)-5-methylisoxazol-4-yl)methoxy)phenyl)acryloyl)-D-alaninate], for which the fold induction at 10 µM stood at 2.
For `CC(C)c1onc(-c2c(Cl)cccc2Cl)c1COc1ccc(/C=C/C(=O)N[C@H](C(=O)O)C(C)C)cc1` [KS-034, (E)-(3-(4-((3-(2,6-dichlorophenyl)-5-isopropylisoxazol-4-yl)methoxy)phenyl)acryloyl)-L-valine], the fold induction at 10 µM was found to be 8.91 and the “FXR activating effect compared with GW4064” value was “superior to GW4064”.
`COC(=O)[C@@H](C)NC(=O)/C=C/c1ccc(OCc2c(-c3c(Cl)cccc3Cl)noc2C(C)C)cc1` [KS-049, methyl (E)-(3-(4-((3-(2,6-dichlorophenyl)-5-isopropylisoxazol-4-yl)methoxy)phenyl)acryloyl)-D-alaninate]: the fold induction at 10 µM worked out at 9.55 and the “FXR activating effect compared with GW4064” value is listed as “superior to GW4064”.
With `COC(=O)[C@H](Cc1ccccc1)NC(=O)/C=C/c1ccc(OCc2c(-c3c(Cl)cccc3Cl)noc2C)cc1` [KS-038, methyl (E)-(3-(4-((3-(2,6-dichlorophenyl)-5-methylisoxazol-4-yl)methoxy)phenyl)acryloyl)-L-phenylalaninate], the fold induction at 10 µM was 2.21.
As to `CCOC(=O)CNC(=O)/C=C/c1ccc(OCc2ccccc2)cc1` [KS-002, ethyl (E)-(3-(4-(benzyloxy)phenyl)acryloyl)glycinate], the fold induction at 10 µM worked out at 1.22.
For the compound `Cc1onc(-c2c(Cl)cccc2Cl)c1COc1ccc(/C=C/C(=O)N[C@H](C)C(=O)O)cc1` [KS-053, (E)-(3-(4-((3-(2,6-dichlorophenyl)-5-methylisoxazol-4-yl)methoxy)phenyl)acryloyl)-D-alanine], the fold induction at 10 µM came to 1.28.
Turning to `CC(C)c1onc(-c2c(Cl)cccc2Cl)c1COc1ccc(/C=C/C(=O)NCC(=O)O)cc1` [KS-022, (E)-(3-(4-((3-(2,6-dichlorophenyl)-5-isopropylisoxazol-4-yl)methoxy)phenyl)acryloyl)glycine], the fold induction at 10 µM came to 3.34.
For the compound `CC(C)c1onc(-c2c(Cl)cccc2Cl)c1COc1ccc(/C=C/C(=O)N[C@@H](C)C(=O)O)cc1` [KS-028, (E)-(3-(4-((3-(2,6-dichlorophenyl)-5-isopropylisoxazol-4-yl)methoxy)phenyl)acryloyl)-L-alanine], the fold induction at 10 µM was determined as 7.44 and the “FXR activating effect compared with GW4064” value was “superior to GW4064”.
In the case of `CCOC(=O)CNC(=O)/C=C/c1ccc(OCc2cccc([N+](=O)[O-])c2)cc1` [KS-008, ethyl (E)-(3-(4-((3-nitrobenzyl)oxy)phenyl)acryloyl)glycinate], the fold induction at 10 µM was found to be 1.5.
Take `CC(C)c1onc(-c2c(Cl)cccc2Cl)c1COc1ccc(/C=C/C(=O)N[C@H](C)C(=O)O)cc1` [KS-052, (E)-(3-(4-((3-(2,6-dichlorophenyl)-5-isopropylisoxazol-4-yl)methoxy)phenyl)acryloyl)-D-alanine]: the fold induction at 10 µM stood at 8.12 and the “FXR activating effect compared with GW4064” value was “superior to GW4064”.
Turning to `CCOC(=O)CNC(=O)/C=C/c1ccc(OCc2c(-c3c(Cl)cccc3Cl)noc2C(C)C)cc1` [KS-010, ethyl (E)-(3-(4-((3-(2,6-dichlorophenyl)-5-isopropylisoxazol-4-yl)methoxy)phenyl)acryloyl)glycinate], the fold induction at 10 µM is 10.5 and the “FXR activating effect compared with GW4064” value is “superior to GW4064”.
With `O=C(O)CNC(=O)/C=C/c1ccc(OCc2cc(F)c(F)cc2F)cc1` [KS-021, (E)-(3-(4-((2,4,5-trifluorobenzyl)oxy)phenyl)acryloyl)glycine], the fold induction at 10 µM stood at 2.01.
Still for that read-out and setting: with `CCOC(=O)[C@@H](NC(=O)/C=C/c1ccc(OCc2c(-c3ccccc3)noc2C)cc1)C(C)C` [KS-033, ethyl (E)-(3-(4-((5-methyl-3-phenylisoxazol-4-yl)methoxy)phenyl)acryloyl)-L-valinate] the figure was 0.93; with `CCOC(=O)CNC(=O)/C=C/c1ccc(OCc2c(-c3ccccc3)noc2C)cc1` [KS-012, ethyl (E)-(3-(4-((5-methyl-3-phenylisoxazol-4-yl)methoxy)phenyl)acryloyl)glycinate], 1.61.
Take `COC(=O)CCNC(=O)/C=C/c1ccc(OCc2c(-c3c(Cl)cccc3Cl)noc2C(C)C)cc1` [KS-043, methyl (E)-3-(3-(4-((3-(2,6-dichlorophenyl)-5-isopropylisoxazol-4-yl)methoxy)phenyl)acrylamido)propanoate]: the fold induction at 10 µM is 10 and the “FXR activating effect compared with GW4064” value is “superior to GW4064”.
`O=C(O)CNC(=O)/C=C/c1ccc(OCc2ccc(-c3ccccc3)cc2)cc1` [KS-016, (E)-(3-(4-([1,1′-biphenyl]-4-ylmethoxy)phenyl)acryloyl)glycine]: the fold induction at 10 µM worked out at 1.99.
For the compound `CCOC(=O)[C@H](C)NC(=O)/C=C/c1ccc(OCc2c(-c3c(Cl)cccc3Cl)noc2C)cc1` [KS-026, ethyl (E)-(3-(4-((3-(2,6-dichlorophenyl)-5-methylisoxazol-4-yl)methoxy)phenyl)acryloyl)-L-alaninate], the fold induction at 10 µM amounted to 1.26.
Turning to `COC(=O)[C@@H](C)NC(=O)/C=C/c1ccc(OCc2c(-c3ccccc3)noc2C)cc1` [KS-051, methyl (E)-(3-(4-((5-methyl-3-phenylisoxazol-4-yl)methoxy)phenyl)acryloyl)-D-alaninate], the fold induction at 10 µM was determined as 1.34.
With `CCOC(=O)CNC(=O)/C=C/c1ccc(OCc2c(-c3c(Cl)cccc3Cl)noc2C)cc1` [KS-011, ethyl (E)-(3-(4-((3-(2,6-dichlorophenyl)-5-methylisoxazol-4-yl)methoxy)phenyl)acryloyl)glycinate], the fold induction at 10 µM turned out to be 1.65.
Still for that read-out and setting: with `O=C(O)CNC(=O)/C=C/c1ccc(O)cc1` [KS-013, (E)-(3-(4-hydroxyphenyl)acryloyl)glycine] the figure was 1.46; with `O=C(O)CNC(=O)/C=C/c1ccc(OCc2ccc(F)cc2)cc1` [KS-017, (E)-(3-(4-((4-fluorobenzyl)oxy)phenyl)acryloyl)glycine], 1.14; with `Cc1onc(-c2c(Cl)cccc2Cl)c1COc1ccc(/C=C/C(=O)N[C@@H](Cc2ccccc2)C(=O)O)cc1` [KS-041, (E)-(3-(4-((3-(2,6-dichlorophenyl)-5-methylisoxazol-4-yl)methoxy)phenyl)acryloyl)-L-phenylalanine], 3.23.
Regarding `Cc1onc(-c2ccccc2)c1COc1ccc(/C=C/C(=O)N[C@H](C)C(=O)O)cc1` [KS-054, (E)-(3-(4-((5-methyl-3-phenylisoxazol-4-yl)methoxy)phenyl)acryloyl)-D-alanine], the fold induction at 10 µM came to 0.9.
For `COC(=O)CCNC(=O)/C=C/c1ccc(OCc2c(-c3ccccc3)noc2C)cc1` [KS-045, methyl (E)-3-(3-(4-((5-methyl-3-phenylisoxazol-4-yl)methoxy)phenyl)acrylamido)propanoate], the fold induction at 10 µM was found to be 1.2.
Take `CC(C)c1onc(-c2c(Cl)cccc2Cl)c1COc1ccc(/C=C/C(=O)N[C@@H](Cc2ccccc2)C(=O)O)cc1` [KS-040, (E)-(3-(4-((3-(2,6-dichlorophenyl)-5-isopropylisoxazol-4-yl)methoxy)phenyl)acryloyl)-L-phenylalanine]: the fold induction at 10 µM turned out to be 9 and the “FXR activating effect compared with GW4064” value is reported as “superior to GW4064”.
With `Cc1onc(-c2c(Cl)cccc2Cl)c1COc1ccc(/C=C/C(=O)NCCC(=O)O)cc1` [KS-047, (E)-3-(3-(4-((3-(2,6-dichlorophenyl)-5-methylisoxazol-4-yl)methoxy)phenyl)acrylamido)propanoic acid], the fold induction at 10 µM came out at 3.04.
On the same count and under the same terms, for `CCOC(=O)[C@@H](NC(=O)/C=C/c1ccc(OCc2c(-c3c(Cl)cccc3Cl)noc2C)cc1)C(C)C` [KS-032, ethyl (E)-(3-(4-((3-(2,6-dichlorophenyl)-5-methylisoxazol-4-yl)methoxy)phenyl)acryloyl)-L-valinate] the value was 1.89.

The record behind these values is US12552755B2, “Cinnamic amide derivative having FXR activating effect, pharmaceutical composition containing the same as active ingredient, and method for preparing the same” (KYUNGSUNG UNIVERSITY INDUSTRY COOPERATION FOUNDATION, priority 2019, dated 2026).
